In patent US11001587B2, “Substituted indazoles as phosphatidylinositol kinase inhibitors” (CUROVIR AB, priority 2017, dated 2021):

Assays:
coxsackie B1 virus = assay: In vitro CPE assay in mammalian cell culture, B1; assay type: cell-based; settings: viral cytopathic effect in mammalian cell culture, read-out: B1 inhibition capacity (IC50)
Enterovirus 68 = assay: In vitro CPE assay in mammalian cell culture, EV68; assay type: cell-based; settings: Enterovirus D, viral cytopathic effect in mammalian cell culture, read-out: EV68 inhibition capacity (IC50)
coxsackie B2 virus = assay: In vitro CPE assay in mammalian cell culture, B2; assay type: cell-based; settings: viral cytopathic effect in mammalian cell culture, read-out: B2 inhibition capacity (IC50)
in vivo = assay: in vivo; parameters: species or system Sprague Dawley rats; settings: male, Sprague Dawley, rat, po, 50 mg/kg
Method: Overnight fasted animals were administered with the test compounds in recommended vehicle 0.4% (v/v) Tween 80+2% (v/v) Glycerol and 15% w/v HPBCD by oral route with a dose of 50 mg/kg body weight at dose volume of 10 mL/kg bw. Under mild isoflurane anesthesia, blood samples were collected into pre-labeled tubes containing anticoagulant (K2EDTA—2 mg/mL blood) during the next 24 hours post dose. Collected blood samples were centrifuged at 4000 rpm, 4° C. for 10 minutes and plasma was separated and stored at −80° C. until analysis.

coxsackie B4 virus = assay: In vitro CPE assay in mammalian cell culture, B4; assay type: cell-based; settings: Enterovirus B, viral cytopathic effect in mammalian cell culture, read-out: B4 inhibition capacity (IC50)
coxsackie B3 virus = assay: In vitro CPE assay in mammalian cell culture, B3; assay type: cell-based; settings: Enterovirus B, viral cytopathic effect in mammalian cell culture, read-out: B3 inhibition capacity (IC50)
Enterovirus 71 = assay: In vitro CPE assay in mammalian cell culture, EV71; assay type: cell-based; settings: Enterovirus A, viral cytopathic effect in mammalian cell culture, read-out: EV71 inhibition capacity (IC50)
coxsackie B5 virus = assay: In vitro CPE assay in mammalian cell culture, B5; assay type: cell-based; settings: viral cytopathic effect in mammalian cell culture, read-out: B5 inhibition capacity (IC50)
Enterovirus 30 = assay: In vitro CPE assay in mammalian cell culture, EV30; assay type: cell-based; settings: viral cytopathic effect in mammalian cell culture, read-out: EV30 inhibition capacity (IC50)
[1] = Metabolic stability in rat liver microsomes; assay type: in vitro ADME; settings: 5 μM test item, 0.125 mg/mL microsomal protein
Method: (§1) Metabolic stability in human and rat liver microsomesMetabolic stability was studied using human (HLM) or rat (RLM) liver microsomes. The final composition of the assay included 5 μM of test item and reference item (Diclofenac or Imipramine) prepared from DMSO stock, so that the final concentration of DMSO was 0.1%, 0.125 mg/mL microsomal protein and cofactors (5.0 mM G-6-P, 0.06 U/mL G-6-PDH, 2.0 mM MgCl2, 1.0 mM NADP^+). Test and reference items were incubated with human or rat liver microsomes with or without cofactors. The reaction mixture (100 μL) was removed at specified time periods and the reaction was stopped by addition of stop solution. The samples were extracted in presence of internal standard and were analyzed using LC-MS/MS. The percent of the test/reference item remaining after a specified incubation period was calculated with respect to the peak area ratio at time 0 min.

[2] = Metabolic stability in human liver microsomes; assay type: in vitro ADME; settings: for Remaining after 1 h, HLM: human liver microsomes, 5 μM test item, 0.125 mg/mL microsomal protein; for half-life at 5 μM: human, microsomes
Method: as §1

PI3Kβ = PI3Kβ (Homo sapiens, UniProt P42338); assay: PI3 kinase inhibition HTRF assay; assay type: biochemical; settings: * no inhibition at the highest tested concentration 1 μM
Method: (§2) Phosphatidyl inositol kinase inhibition assay Inhibition of PI4 kinases was studied using the ADP-Glo™ Kinase Assay which is a luminescent kinase assay that measures ADP formed from a kinase reaction, wherein ADP is converted into ATP, which is converted into light by Ultra-Glo™ Luciferase. The assay is performed in two steps; first, after the kinase reaction, an equal volume of ADP-Glo™ Reagent is added to terminate the kinase reaction and deplete the remaining ATP. In the second step, the Kinase Detection Reagent is added, which simultaneously converts ADP to ATP and allows the newly synthesized ATP to be measured using a coupled luciferase/luciferin reaction. The luminescent signal produced is proportional to the activity of the kinase. Inhibition of PI3 kinases was studied using the HTRF (homogeneous time-resolved fluorescence) assay, which is a universal method for identifying and characterizing the phosphotransferase activity induced by any ATP/ADP dependent target. The formation of ADP was detected by a specific monoclonal antibody labeled with Eu^3+ cryptate, and directly correlated with the amount of phosphorylated substrate.

PI3Kα = PI3Kα (Homo sapiens, UniProt P42336); assay: PI3 kinase inhibition HTRF assay; assay type: biochemical; settings: * no inhibition at the highest tested concentration 1 μM
Chain of PI3Kα (P42336 whole entry, species assumed): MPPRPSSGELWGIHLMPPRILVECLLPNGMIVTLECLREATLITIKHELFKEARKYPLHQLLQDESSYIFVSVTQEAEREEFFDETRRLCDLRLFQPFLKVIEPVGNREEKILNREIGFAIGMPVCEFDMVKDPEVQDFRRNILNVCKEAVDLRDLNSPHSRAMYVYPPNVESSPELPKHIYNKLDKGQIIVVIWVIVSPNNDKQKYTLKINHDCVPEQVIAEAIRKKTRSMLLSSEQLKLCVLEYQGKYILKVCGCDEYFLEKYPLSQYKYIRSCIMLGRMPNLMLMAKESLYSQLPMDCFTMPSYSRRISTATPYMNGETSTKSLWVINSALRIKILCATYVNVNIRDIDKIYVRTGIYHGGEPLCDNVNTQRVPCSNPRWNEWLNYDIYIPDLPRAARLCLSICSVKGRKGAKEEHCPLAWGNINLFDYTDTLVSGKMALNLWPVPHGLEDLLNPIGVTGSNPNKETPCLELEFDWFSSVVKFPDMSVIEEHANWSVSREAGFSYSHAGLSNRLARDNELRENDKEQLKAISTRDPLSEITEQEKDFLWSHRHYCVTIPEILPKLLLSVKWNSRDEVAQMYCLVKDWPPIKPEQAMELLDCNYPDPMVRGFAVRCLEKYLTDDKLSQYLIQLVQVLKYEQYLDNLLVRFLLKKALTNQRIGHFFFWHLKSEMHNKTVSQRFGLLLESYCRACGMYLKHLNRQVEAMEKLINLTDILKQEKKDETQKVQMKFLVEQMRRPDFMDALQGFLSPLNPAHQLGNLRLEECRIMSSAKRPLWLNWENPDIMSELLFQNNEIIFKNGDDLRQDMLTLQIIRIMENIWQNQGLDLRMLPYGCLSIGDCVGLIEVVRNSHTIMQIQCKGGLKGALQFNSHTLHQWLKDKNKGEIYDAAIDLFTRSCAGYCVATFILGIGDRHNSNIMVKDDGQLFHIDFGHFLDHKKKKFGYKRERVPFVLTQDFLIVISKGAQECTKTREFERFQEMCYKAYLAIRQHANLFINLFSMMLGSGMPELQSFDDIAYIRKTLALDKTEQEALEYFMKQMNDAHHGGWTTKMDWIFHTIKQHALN
Chain of PI3Kα (P27986 whole entry partner, species assumed): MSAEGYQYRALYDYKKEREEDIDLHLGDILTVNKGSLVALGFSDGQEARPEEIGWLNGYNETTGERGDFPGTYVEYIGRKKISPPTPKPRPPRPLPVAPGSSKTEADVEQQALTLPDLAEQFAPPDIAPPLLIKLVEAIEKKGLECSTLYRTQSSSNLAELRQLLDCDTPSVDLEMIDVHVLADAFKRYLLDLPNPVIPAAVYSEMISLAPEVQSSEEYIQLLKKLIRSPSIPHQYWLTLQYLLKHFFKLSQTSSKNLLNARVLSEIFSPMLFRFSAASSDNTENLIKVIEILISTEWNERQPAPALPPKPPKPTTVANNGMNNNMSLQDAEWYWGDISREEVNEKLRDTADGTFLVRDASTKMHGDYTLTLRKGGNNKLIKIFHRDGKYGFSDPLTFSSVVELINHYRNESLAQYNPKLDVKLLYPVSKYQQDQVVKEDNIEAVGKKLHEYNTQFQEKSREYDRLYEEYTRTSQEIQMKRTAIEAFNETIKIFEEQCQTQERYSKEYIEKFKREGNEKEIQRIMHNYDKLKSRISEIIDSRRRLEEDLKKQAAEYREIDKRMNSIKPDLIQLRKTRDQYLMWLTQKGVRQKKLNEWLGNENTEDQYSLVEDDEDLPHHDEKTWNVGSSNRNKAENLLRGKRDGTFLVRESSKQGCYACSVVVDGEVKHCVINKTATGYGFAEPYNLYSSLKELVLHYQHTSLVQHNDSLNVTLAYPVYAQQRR
Method: as §2

polio virus Sabin 1 = assay: organism not typed; assay type: cell-based; settings: read-out: Polio 1 inhibition capacity (IC50)
PI4KIIIβ = PI4KIIIβ (Homo sapiens, UniProt Q9UBF8); assay: Phosphatidyl inositol kinase inhibition assay (ADP-Glo Kinase Assay); assay type: biochemical
Chain of PI4KIIIβ (Q9UBF8 whole entry): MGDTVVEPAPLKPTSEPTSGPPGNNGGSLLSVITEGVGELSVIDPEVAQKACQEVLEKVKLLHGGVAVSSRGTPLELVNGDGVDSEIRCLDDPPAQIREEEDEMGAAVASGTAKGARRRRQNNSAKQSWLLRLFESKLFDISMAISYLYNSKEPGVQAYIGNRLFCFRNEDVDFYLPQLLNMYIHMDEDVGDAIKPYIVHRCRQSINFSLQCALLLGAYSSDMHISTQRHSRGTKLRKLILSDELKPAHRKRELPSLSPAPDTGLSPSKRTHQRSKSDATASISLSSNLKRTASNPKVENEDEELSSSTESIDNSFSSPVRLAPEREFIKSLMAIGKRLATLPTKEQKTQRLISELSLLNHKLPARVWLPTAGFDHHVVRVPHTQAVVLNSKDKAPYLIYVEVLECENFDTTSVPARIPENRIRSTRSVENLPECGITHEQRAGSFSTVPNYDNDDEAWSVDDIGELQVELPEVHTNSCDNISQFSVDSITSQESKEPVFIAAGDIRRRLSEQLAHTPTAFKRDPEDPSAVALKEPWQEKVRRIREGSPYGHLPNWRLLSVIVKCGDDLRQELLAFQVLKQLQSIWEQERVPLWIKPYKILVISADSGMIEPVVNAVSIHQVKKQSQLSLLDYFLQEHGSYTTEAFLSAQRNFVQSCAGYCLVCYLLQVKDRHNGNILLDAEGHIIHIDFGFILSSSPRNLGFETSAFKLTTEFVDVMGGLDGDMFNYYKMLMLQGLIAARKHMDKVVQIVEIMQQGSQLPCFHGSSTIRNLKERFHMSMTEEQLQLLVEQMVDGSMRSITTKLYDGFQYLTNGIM
Method: as §2

PI4KIIIα = PI4KIIIα (Homo sapiens, UniProt P42356); assay: as above; assay type: biochemical; settings: * no inhibition at the highest tested concentration 1 μM
Chain of PI4KIIIα (P42356 whole entry): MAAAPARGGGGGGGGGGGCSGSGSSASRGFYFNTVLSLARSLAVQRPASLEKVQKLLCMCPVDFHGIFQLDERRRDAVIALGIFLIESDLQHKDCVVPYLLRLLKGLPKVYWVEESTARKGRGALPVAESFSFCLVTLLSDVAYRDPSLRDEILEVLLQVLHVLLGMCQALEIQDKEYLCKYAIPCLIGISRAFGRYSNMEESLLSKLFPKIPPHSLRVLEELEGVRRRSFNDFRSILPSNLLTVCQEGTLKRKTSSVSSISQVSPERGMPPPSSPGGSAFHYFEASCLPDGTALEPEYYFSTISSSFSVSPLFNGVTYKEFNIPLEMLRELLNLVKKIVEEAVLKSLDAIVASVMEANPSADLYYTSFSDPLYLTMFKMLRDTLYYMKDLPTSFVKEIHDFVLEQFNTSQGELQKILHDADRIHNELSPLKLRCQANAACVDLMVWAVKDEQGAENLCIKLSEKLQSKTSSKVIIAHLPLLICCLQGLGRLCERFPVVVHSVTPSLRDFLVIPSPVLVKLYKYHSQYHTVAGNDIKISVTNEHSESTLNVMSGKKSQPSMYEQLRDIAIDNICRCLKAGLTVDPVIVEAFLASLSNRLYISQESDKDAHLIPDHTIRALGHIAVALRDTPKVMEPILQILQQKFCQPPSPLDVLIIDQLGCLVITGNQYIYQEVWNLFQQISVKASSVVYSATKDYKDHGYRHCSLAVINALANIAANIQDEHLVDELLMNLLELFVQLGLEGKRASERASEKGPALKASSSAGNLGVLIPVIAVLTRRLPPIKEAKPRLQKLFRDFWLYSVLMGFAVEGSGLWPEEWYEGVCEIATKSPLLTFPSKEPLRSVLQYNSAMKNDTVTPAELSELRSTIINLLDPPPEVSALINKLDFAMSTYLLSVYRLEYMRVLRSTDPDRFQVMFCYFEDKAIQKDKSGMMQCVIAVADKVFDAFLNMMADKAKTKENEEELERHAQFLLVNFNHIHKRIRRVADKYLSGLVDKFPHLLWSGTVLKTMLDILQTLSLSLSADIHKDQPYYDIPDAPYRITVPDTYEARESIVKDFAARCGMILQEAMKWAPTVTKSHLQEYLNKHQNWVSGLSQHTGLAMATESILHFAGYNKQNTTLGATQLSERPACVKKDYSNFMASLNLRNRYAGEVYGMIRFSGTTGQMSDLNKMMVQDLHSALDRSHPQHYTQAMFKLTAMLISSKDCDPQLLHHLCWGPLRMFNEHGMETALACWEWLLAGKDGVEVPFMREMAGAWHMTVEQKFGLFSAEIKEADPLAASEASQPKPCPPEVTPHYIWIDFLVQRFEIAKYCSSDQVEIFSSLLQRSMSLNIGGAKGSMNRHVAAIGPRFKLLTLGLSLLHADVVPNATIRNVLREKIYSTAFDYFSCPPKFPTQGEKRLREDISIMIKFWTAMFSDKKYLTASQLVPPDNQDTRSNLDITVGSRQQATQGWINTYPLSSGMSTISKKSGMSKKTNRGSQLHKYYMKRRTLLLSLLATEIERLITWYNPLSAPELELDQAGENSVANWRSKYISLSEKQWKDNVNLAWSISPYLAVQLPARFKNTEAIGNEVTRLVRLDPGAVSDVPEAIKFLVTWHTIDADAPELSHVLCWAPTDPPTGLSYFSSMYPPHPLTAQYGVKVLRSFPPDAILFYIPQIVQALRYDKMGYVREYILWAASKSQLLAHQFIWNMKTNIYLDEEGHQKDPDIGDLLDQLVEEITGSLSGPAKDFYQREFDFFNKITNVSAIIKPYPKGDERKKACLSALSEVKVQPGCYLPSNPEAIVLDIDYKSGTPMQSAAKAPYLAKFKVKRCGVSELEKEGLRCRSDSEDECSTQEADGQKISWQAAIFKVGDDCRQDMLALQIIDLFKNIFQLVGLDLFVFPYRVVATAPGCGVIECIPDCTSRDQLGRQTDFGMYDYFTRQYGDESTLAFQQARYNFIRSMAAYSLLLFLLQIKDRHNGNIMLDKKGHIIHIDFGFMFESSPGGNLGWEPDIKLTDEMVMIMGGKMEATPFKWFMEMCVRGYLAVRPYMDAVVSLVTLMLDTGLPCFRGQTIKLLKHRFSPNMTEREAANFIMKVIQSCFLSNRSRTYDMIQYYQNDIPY
Method: as §2

in vitro = in vitro ADME; settings: plasma, pH 7.4
Method: Plasma protein binding study was performed by using a Rapid Equilibrium Dialysis (RED) device containing dialysis membrane with a molecular weight cut-off of 8,000 Daltons. Each dialysis insert contains two chambers. The red chamber was for the plasma while the white chamber was for the buffer. The human and rat plasma (pH adjusted to 7.40) samples of test items and reference items (Warfarin and Propranolol) were prepared at a required test concentration of 5 μM using 5 mM DMSO stocks (final DMSO concentration was 0.1%). 300 μL of plasma sample was added into the sample chamber. 500 μL of buffer was added into the buffer chamber. After sealing the RED device with an adhesive film, incubation was done at 37° C. with shaking at 300 rpm for 4 h. Following incubation, an aliquot of 50 μL was removed from each well (plasma and buffer side) and diluted with equal volume of opposite matrix to nullify the matrix effect. The specimens were subjected to sample extraction in presence of internal standard by liquid-liquid extraction/protein precipitation method. After extraction, the samples were transferred into labeled auto sampler vials and submitted to LC-MS/MS analysis.

Enterovirus 6 = assay: In vitro CPE assay in mammalian cell culture, EV6; assay type: cell-based; settings: viral cytopathic effect in mammalian cell culture, read-out: EV6 inhibition capacity (IC50)

Compound | IC50 (coxsackie B1 virus) [nM] | IC50 (Enterovirus 68) [nM] | IC50 (coxsackie B2 virus) [nM] | AUC(0-inf) (in vivo) [µg·h/mL] | AUC(0-t) (in vivo) [µg·h/mL] | AUCextrap (in vivo) [%] | Cmax (in vivo) [ng/mL] | MRT last (in vivo) [h] | Tmax (in vivo) [h] | half-life (in vivo) [h] | IC50 (coxsackie B4 virus) [nM] | IC50 (coxsackie B3 virus) [nM] | IC50 (Enterovirus 71) [nM] | IC50 (coxsackie B5 virus) [nM] | IC50 (Enterovirus 30) [nM] | Remaining after 1 h, RLM [1] [%] | Remaining after 1 h, HLM [2] [%] | half-life at 5 μM [2] [h] | IC50 (PI3Kβ) [nM] | IC50 (PI3Kα) [nM] | other results
Cc1cc(NCc2ccncc2)n2nc(C)c(-c3ccc4c(c3)c(C)nn4C)c2n1 [Example 8, 3-(1,3-dimethyl-1H-indazol-5-yl)-2,5-dimethyl-N-(pyridin-4-ylmethyl)pyrazolo[1,5-a]pyrimidin-7-amine] | < 0.1 | < 0.1 | < 0.1 | 197 ± 27.1 | 185 ± 13.3 | 5.7 ± 6.1 | 12900 ± 700 | 6.8 ± 0.8 | 1.7 ± 0.6 | 5.4 ± 2.5 | < 10 | < 0.1 | < 0.1 | < 0.1 | < 1 | 90 | 86 | > 2 | 1500 | > 1000 | IC50 (polio virus Sabin 1): < 0.1 nM; IC50 (PI4KIIIβ): 0.9 nM; IC50 (PI4KIIIα): 1300 nM; fraction unbound at 4 h, 5 μM (in vitro; human): 0.027; fraction unbound at 4 h, 5 μM (in vitro; rat): 0.024; IC50 (Enterovirus 6): < 100 nM
Cc1nc(NCc2ccncc2)n2nc(C)c(-c3ccc4c(c3)c(C)nn4C)c2n1 [Example 20, 8-(1,3-dimethyl-1H-indazol-5-yl)-2,7-dimethyl-N-(pyridin-4-ylmethyl)pyrazolo[1,5-a][1,3,5]triazin-4-amine] | < 1 | < 10 | < 1 | 115 ± 9.4 | 110 ± 8.3 | 5.1 ± 4.9 | 8000 ± 1500 | 6.8 ± 0.9 | 2 | 5 ± 2.3 | < 10 | < 1 | < 10 | < 1 | < 10 | 96 | 78 | > 2 | > 1000 | > 1000 | IC50 (polio virus Sabin 1): < 1 nM; IC50 (PI4KIIIβ): 1.2 nM; IC50 (PI4KIIIα): > 1000 nM; fraction unbound at 4 h, 5 μM (in vitro; human): 0.906; fraction unbound at 4 h, 5 μM (in vitro; rat): 0.031; IC50 (Enterovirus 6): < 1000 nM
